Test results taken from patent US9833497B2, “Human originated EGF domain proteins and use of the same” (CHENGDU SOURCEBIO LIMITED-LIABILITY COMPANY, priority 2013, dated 2017).

Columns and labels:
Type in all cases: cell-based
Aeromonas hydrophila = assay: MIC against Gram-negative bacteria: Aeromonas hydrophila; conditions: Aeromonas hydrophila; 5×10^5 CFU/mL; 10 h cultivation at 37° C.
Method in brief: (§1)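 Broth microdilution, LB medium, final inoculum 5×10^5 CFU/mL from McFarland 0.5 cultures. Recombinant human EGF domain proteins tested in two-fold steps, n=3. MIC: lowest concentration, no growth.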

Serratia marcescens = assay: MIC against Gram-negative bacteria: Serratia marcescens; conditions: Serratia marcescens; 5×10^5 CFU/mL; 10 h cultivation at 37° C.
Method in brief: as §1

E. coli DH5α = assay: Antibacterial activity: MIC and growth curve against E. coli DH5α in 96-well plate; conditions: minimal inhibitory concentration against E. coli DH5α; 96-well plate, 5×10^5 CFU/mL, 37° C., judged after 8 h
Method in brief: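 MIC taken as lowest protein level with no bacterial growth, tracked by A600 every 30 min during 37 °C, 175 rpm culture. Two-fold protein series 50-12.5 μg/mL final, triplicate wells, against 5×10^5 CFU/mL of LB-washed mid-log cells.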

Moraxella catarrhalis = assay: MIC against Gram-negative bacteria: Moraxella catarrhalis; conditions: Moraxella catarrhalis; 5×10^5 CFU/mL; 10 h cultivation at 37° C.
Method in brief: as §1

Citrobacter diversus = assay: MIC against Gram-negative bacteria: Citrobacter diversus; conditions: Citrobacter diversus; 5×10^5 CFU/mL; 10 h cultivation at 37° C.
Method in brief: as §1

Klebsiella pneumonia = assay: MIC against Gram-negative bacteria: Klebsiella pneumonia; conditions: Klebsiella pneumonia; 5×10^5 CFU/mL; 10 h cultivation at 37° C.
Method in brief: as §1

Pseudomonas aeruginosa = assay: MIC against Gram-negative bacteria: Pseudomonas aeruginosa; conditions: Pseudomonas aeruginosa; 5×10^5 CFU/mL; 10 h cultivation at 37° C.
Method in brief: as §1

Proteus vulgaris = assay: MIC against Gram-negative bacteria: Proteus vulgaris; conditions: Proteus vulgaris; 5×10^5 CFU/mL; 10 h cultivation at 37° C.
Method in brief: as §1

Proteus mirabilis = assay: MIC against Gram-negative bacteria: Proteus mirabilis; conditions: Proteus mirabilis; 5×10^5 CFU/mL; 10 h cultivation at 37° C.
Method in brief: as §1

E. coli BL21 = assay: MIC against Gram-negative bacteria: E. coli BL21; conditions: E. coli BL21; 5×10^5 CFU/mL; 10 h cultivation at 37° C.
Method in brief: as §1

Enterobacter cloacae = assay: MIC against Gram-negative bacteria: Enterobacter cloacae; conditions: Enterobacter cloacae; 5×10^5 CFU/mL; 10 h cultivation at 37° C.
Method in brief: as §1

Row | Substance | MIC against A. hydrophila (Aeromonas hydrophila) [µg/mL] | MIC against S. marcescens (Serratia marcescens) [µg/mL] | MIC (E. coli DH5α) [µg/mL] | MIC against M. catarrhalis (Moraxella catarrhalis) [µg/mL] | MIC against C. diversus (Citrobacter diversus) [µg/mL] | MIC against K. pneumonia (Klebsiella pneumonia) [µg/mL] | MIC against P. aeruginosa (Pseudomonas aeruginosa) [µg/mL] | MIC against P. vulgaris (Proteus vulgaris) [µg/mL] | MIC against P. mirabilis (Proteus mirabilis) [µg/mL] | MIC against E. coli BL21 (E. coli BL21) [µg/mL] | MIC against E. cloacae (Enterobacter cloacae) [µg/mL]
1 | PRT1365 (SQLRCPNDCHSRGRCVEGKCVCEQGFKGYDCS; listed as Homo sapiens) | 12.5 | 12.5 | 12.5 | 25 | 50 | 50 | 25 | 25 | 12.5 | 100 | 25
2 | PRT1366 (ERLACPGACSGHGRCVDGRCLCHEPYVGADCG; listed as Homo sapiens) | 12.5 | 12.5 | 12.5 | 12.5 | 12.5 | 25 | 12.5 | 12.5 | 12.5 | 12.5 | 12.5
3 | PRT1367 (YPACPENCSGHGECVRGVCQCHEDFMSEDCS; listed as Homo sapiens) | 50 | 25 | 25 | 50 | 12.5 | 12.5 | 25 | 50 | 12.5 | 50 | 25
4 | PRT1368 (EKRCPGDCSGHGFCDTGECYCEEGFTGLDCA; listed as Homo sapiens) | 25 | 12.5 | 12.5 | 12.5 | 12.5 | 25 | 12.5 | 12.5 | 12.5 | 25 | 12.5
5 | PRT1369 (ASGSCPDDCNDQGRCVRGRCVCFPGYTGPSC; listed as Homo sapiens) | 12.5 | 25 | 12.5 | 12.5 | 12.5 | 12.5 | 12.5 | 12.5 | 25 | 12.5 | 25
6 | PRT1370 (GVRSCPGDCRGRGRCESGRCMCWPGYTGRDC; listed as Homo sapiens) | 25 | 12.5 | 25 | 25 | 12.5 | 50 | 25 | 25 | 50 | 12.5 | 25
7 | PRT1371 (GTRACPGDCRGRGRCVDGRCVCNPGFTGEDC; listed as Homo sapiens) | 12.5 | 12.5 | 50 | 12.5 | 100 | 12.5 | 12.5 | 12.5 | 12.5 | 12.5 | 12.5
